How the values were obtained:
T48 cells = experiment: Fluorescent apoptotic assay (Staurosporine, MR(DEVD)2) in TrkB stably transfected T48 cells; assay type: cell-based, murine
Description: Create and test reporter cell lines. In order to identify small molecules that mimic BDNF and activate TrkB, TrkB stably transfected murine cell lines were created. The T48 and T62 cell lines were created by transfecting basal forebrain SN56 cells, which express negligible TrkB, with a TrkB expression construct. […] To test resistance to apoptosis, SN56 cells and the T48 cell line were either untreated or treated with BDNF, and then subjected to an apoptotic assay. Briefly, the cells were treated with 0.75 μM Staurosporine for 9 hours, and 1 hour before the termination of the experiment, the cells were treated with 10 μM MR (DEVD)2. The cells were then fixed with 4% paraformaldehyde for 15 minutes, washed with phosphate buffered saline (PBS), and incubated with Hoechst 33342 for 10 minutes. Cover slides were washed with PBS, mounted, and the cells were examined using a fluorescent microscope to see which cells turned red upon caspase cleavage.
Cell-based screen. To screen a large number of chemicals, a cell-based apoptic assay was developed using a cell permeable fluorescent dye, MR (DEVD)2, which turns red upon caspase cleavage in apoptotic cells. SN56 and T48 cells were plated at 10,000 cells per well in multiple 96-well plates and exposed to 2000 biologically active compounds from the Spectrum Collection Library for 30 minutes at a concentration of 10 μM in DMSO. Following exposure to the compounds, the cells were subjected to the developed fluorescent apoptotic assay described above (method schematically shown in FIG. 2).
In the initial screen, 5 of the 66 positive compounds were flavone derivatives or similar compounds. […] To compare the apoptosis inhibitory activity, the flavone derivatives were preincubated with SN56 and T48 cells, and subsequently were subjected to the fluorescent apoptotic assay as described above. […] Additionally, the effective concentration at which 50% (EC50) of the cells are protected from apoptosis was determined for 7,8-dihydroxyflavone, Cianidanol, Pinocembrin and Diosmetin.

TrkB F616A = molecular target: T1, TrkB F616A (Mus musculus, UniProt P15209, F616A); experiment: TrkB phosphorylation in cortical neurons from TrkB F616A knockin mice; assay type: cell-based; conditions: 0.5 μM, 30 minutes, FIG. 23
T1 construct: endogenous in cells; host or cells: cortical neurons of TrkB F616A knock-in mice
Experimental: To explore whether the neuroprotective action of 7,8-dihydroxyflavone is dependent on TrkB activation in vivo, TrkB F616A knockin mice were used. […] To further assess whether 7,8-dihydroxyflavone can mimic BDNF, cortical neurons were prepared from TrkB F616A knockin mice. The cortical neurons were pretreated for 30 minutes with either K252a Trk tyrosine kinase inhibitor (100 nM) or 1NMPP1 inhibitor (100 nM) followed by 0.5 μM 7,8-dihydroxyflavone for 30 minutes.

KA-provoked apoptosis = experiment: KA-provoked neuronal cell death in TrkB F616A knockin mice, intraperitoneal (caspase-3 immunoblot); assay type: in vivo
Experimental: To determine if 1NMPP1 would make neurons treated with 7,8-dihydroxyflavone vulnerable to KA-provoked neuronal cell death, TrkF616A knockin mice were fed with 1NMPP1 (25 mM) in drinking water one day prior to pharmacological reagent treatment. The next day, the mice were intraperitoneally injected with KA (25 mg/kg), or 7,8-dihydroxyflavone (5 mg/kg) 4 hours prior to KA injection. The control mice were injected with either KA or 7,8-dihydroxyflavone alone, or the mice were administered 7,8-dihydroxyflavone 4 hours before KA. In 4 days, the mice were sacrificed and the brains were homogenated and ultracentrifuged. The supernatant was employed for SDS-PAGE and immunoblotting analysis.

immobility = experiment: Forced swim test after 21 days oral treatment; assay type: in vivo, C57BL/6J mice; conditions: 5 mg/kg, oral injection, FIG. 34
Experimental: Adult male mice (2-3 months old) were randomly submitted to a forced swim test without a pre-swim. Saline, 4′-DMA-7,8-DHF and 7,8-DHF (5 mg/kg) were orally injected for 21 days. The mice were allowed to adapt to the test room for 2 days. The mice were placed in a clear glass cylinder with a diameter of 16 cm, half-filled with clear water at 24° C.
(§1) To explore whether 4′-DMA-7,8-DHF and 7,8-DHF have any antidepressant effect, a forced swim test (6 minutes, immobility recorded in the last 4 minutes) was conducted after chronic treatment of male C57BL/6J mice (8 mice/group) for 21 days via oral injection.

immobility time = experiment: Forced swim test in TrkB F616A knockin mice with saline or 1NMPP1 pretreatment; assay type: in vivo; conditions: drugs for five days, FIG. 36
Experimental: To assess whether the behavior responses by 7,8-DHF and its derivative are mediated by TrkB receptor, TrkB F616A knockin mice were utilized. The transgenic mice were subjected to saline or 1NMPP1 pretreatment (25 μM), respectively (drinking water provided one day prior to drug injection and maintained throughout whole experiment). The control and/or drugs were provided for five days. […] (Data presented in FIGS. 34, 35, and 36 as mean±SEM; *p<0.05 against vehicle, #P<0.01 against vehicle and ***P<0.0001 against vehicle, student t-test.)

TrkA [1] = molecular target: T2, TrkA (Mus musculus, UniProt Q3UFB7); experiment: TrkA phosphorylation in mouse brain after intraperitoneal injection; assay type: in vivo, mice; set-up: from tissue; host or cells: mouse brain; conditions: 5 mg/kg intraperitoneally, 2 hours after injection, FIG. 12
Experimental: To assess whether 7,8-dihydroxyflavone can provoke TrkB activation in the brain, mice were intraperitoneally injected with a dose of 5 mg/kg and analyzed at various time points. […] Further, as shown in FIG. 12 (right panel), the protein and mRNA levels of the neurotrophic receptors were not altered after treatment with 7,8-dihydroxyflavone.

TrkA [2] = molecular target: T2, TrkA; experiment: Immunoblotting of brain lysates from forced swim test mice: TrkA; assay type: in vivo; set-up: from tissue; host or cells: mouse brain; conditions: 5 mg/kg, 21 days oral, anti-p-TrkA 794, FIG. 35
Experimental: as §1

T2 sequence (Q3UFB7 34-799): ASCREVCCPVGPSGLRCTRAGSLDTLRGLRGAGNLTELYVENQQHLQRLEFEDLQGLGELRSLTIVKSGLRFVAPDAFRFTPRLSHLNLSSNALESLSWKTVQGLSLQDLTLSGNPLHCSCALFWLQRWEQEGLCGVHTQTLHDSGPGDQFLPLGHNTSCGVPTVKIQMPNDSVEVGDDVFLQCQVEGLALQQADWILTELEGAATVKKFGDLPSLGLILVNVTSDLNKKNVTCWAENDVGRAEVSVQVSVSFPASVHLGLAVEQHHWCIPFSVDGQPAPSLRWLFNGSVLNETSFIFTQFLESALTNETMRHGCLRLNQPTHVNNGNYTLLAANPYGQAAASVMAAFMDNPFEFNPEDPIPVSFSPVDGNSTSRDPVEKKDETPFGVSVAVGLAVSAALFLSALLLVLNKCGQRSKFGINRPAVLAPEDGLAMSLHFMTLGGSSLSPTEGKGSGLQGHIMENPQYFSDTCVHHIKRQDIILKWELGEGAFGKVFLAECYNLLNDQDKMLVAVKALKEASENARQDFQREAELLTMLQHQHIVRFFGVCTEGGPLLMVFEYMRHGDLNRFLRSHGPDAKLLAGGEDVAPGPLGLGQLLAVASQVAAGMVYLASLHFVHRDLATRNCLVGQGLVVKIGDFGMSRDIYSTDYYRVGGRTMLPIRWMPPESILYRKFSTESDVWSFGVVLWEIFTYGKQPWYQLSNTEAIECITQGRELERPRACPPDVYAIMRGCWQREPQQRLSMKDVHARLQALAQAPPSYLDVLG
T1 sequence (P15209 32-821 F616A): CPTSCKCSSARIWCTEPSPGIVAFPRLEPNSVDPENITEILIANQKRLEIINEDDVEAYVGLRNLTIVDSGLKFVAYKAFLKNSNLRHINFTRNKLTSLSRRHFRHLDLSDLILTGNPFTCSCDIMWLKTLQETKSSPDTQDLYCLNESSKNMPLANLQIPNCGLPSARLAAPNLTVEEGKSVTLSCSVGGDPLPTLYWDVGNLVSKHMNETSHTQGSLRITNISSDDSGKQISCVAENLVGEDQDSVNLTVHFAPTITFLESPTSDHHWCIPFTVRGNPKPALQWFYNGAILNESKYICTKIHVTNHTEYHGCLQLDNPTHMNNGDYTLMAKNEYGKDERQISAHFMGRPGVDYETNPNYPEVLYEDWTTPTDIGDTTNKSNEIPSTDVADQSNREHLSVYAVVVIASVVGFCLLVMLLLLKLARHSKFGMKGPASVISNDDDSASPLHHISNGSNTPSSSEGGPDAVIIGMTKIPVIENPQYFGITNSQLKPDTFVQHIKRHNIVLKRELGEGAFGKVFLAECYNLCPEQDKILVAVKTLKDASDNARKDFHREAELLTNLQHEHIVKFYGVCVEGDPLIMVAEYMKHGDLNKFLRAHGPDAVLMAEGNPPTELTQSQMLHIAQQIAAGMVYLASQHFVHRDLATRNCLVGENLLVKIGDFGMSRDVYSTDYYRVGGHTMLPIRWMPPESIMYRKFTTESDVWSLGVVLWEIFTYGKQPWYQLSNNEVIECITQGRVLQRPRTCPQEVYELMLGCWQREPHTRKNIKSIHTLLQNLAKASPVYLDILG

O=c1cc(-c2ccccc2)oc2c(O)c(O)ccc12 [7,8-dihydroxyflavone]
EC50 (T48 cells; Mus musculus, read-out: effective concentration at which 50% (EC50) of the cells are protected from apoptosis): 35 nM
suppression of apoptosis in T48 cell line (T48 cells; Staurosporine-induced apoptosis, FIG. 1B and FIG. 4): strongly suppressed apoptosis
activation of TrkB F616A (TrkB F616A): selectively activates TrkB F616A
KA-provoked apoptosis (KA-provoked apoptosis; 5 mg/kg intraperitoneally 4 hours prior to KA (25 mg/kg)): suppressed KA-provoked apoptosis
protective effect against KA after 1NMPP1 pretreatment (KA-provoked apoptosis; 1NMPP1 in drinking water one day prior): abolished
apoptosis in TrkB F616A mice, treatment alone without KA (KA-provoked apoptosis; FIG. 24): no effect on apoptosis
swimming immobility (immobility): significantly decreased
immobility time after 1NMPP1 treatment (immobility time; 1NMPP1 25 μM in drinking water): neither 4′-DMA-7,8-DHF nor 7,8-DHF had any significant effect
immobility time, saline group (immobility time): substantially reduced the immobility time
TrkA phosphorylation in the brain (TrkA [1]): not TrkA
TrkA activation in mouse brain (TrkA [2]): not TrkA activation

— patent publication US9895344B2, “Treating various disorders with 7,8-dihydroxyflavone and derivatives thereof” (EMORY UNIVERSITY, priority 2008, dated 2018)
